Results as given in publication PMC8874984, “Improved Cell-Potent and Selective Peptidomimetic Inhibitors of Protein N-Terminal Methyltransferase 1” (Molecules, 2022).
Like-named read-outs stand apart in the source and are kept apart here.

What was measured:
NTMT1 [1] = target: T1, NTMT1 (Homo sapiens, UniProt Q9BV86); assay: SAHH-coupled fluorescence assay of NTMT1 inhibition; type: biochemical; details: for IC50/IC50 (DC541): ratio of NTMT1 IC50 to that of DC541; for Expt. ΔGbind ± σ: estimated from the IC50 values in Table 1
T1 construct: made in house
T1 sequence (Q9BV86 1-223): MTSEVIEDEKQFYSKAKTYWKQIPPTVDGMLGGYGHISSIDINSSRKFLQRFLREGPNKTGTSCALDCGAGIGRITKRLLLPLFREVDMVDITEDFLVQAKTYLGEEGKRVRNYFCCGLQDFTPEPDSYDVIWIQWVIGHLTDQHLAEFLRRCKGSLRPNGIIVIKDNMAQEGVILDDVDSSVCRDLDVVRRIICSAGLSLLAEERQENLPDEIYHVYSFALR

in vitro [2] = details: PAMPA
[3] = system: cellular α-N-terminal methylation level in HCT116 cells; assay: Cellular N-terminal methylation level, Western blot with anti-me3-SPK antibody; type: cell-based; details: Homo sapiens, HCT-116, cellular N-terminal methylation inhibition, n = 2
Protocol: Next, we investigated the effects of all peptidomimetic inhibitors with GI50 > 100 µM and IC50 < 1 µM on the cellular α-N-terminal methylation level in HCT116 cells (Table 2). Then, we examined the top three cell-potent peptidomimetic inhibitors 1d–f on the dose-response of inhibition of cellular N-terminal methylation levels. […] As the biochemical IC50 value of GD562 was about three-fold higher than DC541, we proposed that the improved cellular inhibition of GD562 may be attributed to its increased permeability with higher cLogP than DC541.
Figure 5 Inhibition of cellular N-terminal methylation by peptidomimetic inhibitors in HCT116 cells. Representative Western blot results of the effects of GD562 (A), GD564 (B), and GD573 (C) on the cellular methylation level. Image quantification was performed using ImageJ software (NIH). […] All experiments were performed in duplicate (n = 2). […]
Cellular N-methylation level.
The gel was transferred to a
system. Image quantification was done using ImageJ software (NIH). All bands were compared
OrganicsTM, AC418900050) dissolved in sterile 1 x PBS. […]

me3-RCC1 [4] = assay: Cellular me3-RCC1 level in HCT116 cells; type: cell-based, human
me3-SET [5] = assay: Cellular me3-SET level in HCT116 cells; type: cell-based, human
G9a = target: T2, G9a (Homo sapiens, UniProt Q96KQ7); assay: In-house selectivity study, fluorescence assay: G9a; type: biochemical; details: read-out: inhibition of enzyme activity
T2 sequence (Q96KQ7 1-1210): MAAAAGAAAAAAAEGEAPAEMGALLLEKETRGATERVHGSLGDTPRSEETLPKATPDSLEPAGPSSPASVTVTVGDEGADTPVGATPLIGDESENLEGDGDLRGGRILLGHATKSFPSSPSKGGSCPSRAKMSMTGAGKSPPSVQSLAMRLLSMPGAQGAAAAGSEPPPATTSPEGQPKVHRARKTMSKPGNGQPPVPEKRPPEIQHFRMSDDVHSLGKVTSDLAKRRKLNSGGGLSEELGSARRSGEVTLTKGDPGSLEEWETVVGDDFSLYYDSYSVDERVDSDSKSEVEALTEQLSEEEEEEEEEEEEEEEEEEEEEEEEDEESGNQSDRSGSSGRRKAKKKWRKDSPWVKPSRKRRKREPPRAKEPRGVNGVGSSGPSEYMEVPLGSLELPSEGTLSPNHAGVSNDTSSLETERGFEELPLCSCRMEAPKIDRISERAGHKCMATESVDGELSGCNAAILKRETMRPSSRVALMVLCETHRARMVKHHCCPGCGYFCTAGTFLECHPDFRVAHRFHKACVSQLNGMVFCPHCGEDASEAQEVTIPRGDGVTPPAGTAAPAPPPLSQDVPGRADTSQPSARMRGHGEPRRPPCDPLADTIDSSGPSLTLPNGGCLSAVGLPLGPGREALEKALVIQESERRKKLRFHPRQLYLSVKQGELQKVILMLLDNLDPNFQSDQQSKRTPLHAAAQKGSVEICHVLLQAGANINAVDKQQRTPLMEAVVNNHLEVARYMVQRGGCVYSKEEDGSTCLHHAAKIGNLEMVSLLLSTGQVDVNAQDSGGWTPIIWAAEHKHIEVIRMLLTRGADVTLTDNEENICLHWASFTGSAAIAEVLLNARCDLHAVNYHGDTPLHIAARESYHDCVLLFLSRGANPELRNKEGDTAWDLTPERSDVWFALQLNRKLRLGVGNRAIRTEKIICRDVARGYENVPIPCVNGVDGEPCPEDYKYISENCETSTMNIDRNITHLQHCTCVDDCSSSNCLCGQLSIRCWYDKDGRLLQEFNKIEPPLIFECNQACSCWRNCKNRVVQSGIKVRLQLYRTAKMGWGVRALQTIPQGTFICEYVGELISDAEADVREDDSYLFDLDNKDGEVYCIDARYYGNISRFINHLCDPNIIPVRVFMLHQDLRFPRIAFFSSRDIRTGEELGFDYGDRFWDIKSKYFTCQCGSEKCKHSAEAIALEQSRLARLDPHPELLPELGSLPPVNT

SETD7 = target: T3, SETD7 (Homo sapiens, UniProt Q8WTS6); assay: In-house selectivity study, fluorescence assay: SETD7; type: biochemical; details: read-out: inhibition of enzyme activity
T3 construct: made in house
T3 sequence (Q8WTS6 1-366): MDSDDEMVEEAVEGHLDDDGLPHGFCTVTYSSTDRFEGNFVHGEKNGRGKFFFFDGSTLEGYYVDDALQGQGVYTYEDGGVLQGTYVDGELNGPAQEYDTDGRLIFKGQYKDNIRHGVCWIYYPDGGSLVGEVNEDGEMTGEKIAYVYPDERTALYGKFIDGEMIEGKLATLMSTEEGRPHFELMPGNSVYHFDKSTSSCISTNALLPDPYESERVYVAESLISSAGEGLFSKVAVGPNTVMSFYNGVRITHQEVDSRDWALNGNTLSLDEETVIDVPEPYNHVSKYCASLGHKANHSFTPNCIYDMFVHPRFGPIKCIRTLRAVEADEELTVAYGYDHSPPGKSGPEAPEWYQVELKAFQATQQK

PRMT1 = target: T4, PRMT1 (Homo sapiens, UniProt Q99873); assay: In-house selectivity study, fluorescence assay: PRMT1; type: biochemical; details: read-out: inhibition of enzyme activity
T4 construct: made in house
T4 sequence (Q99873 whole entry, species assumed): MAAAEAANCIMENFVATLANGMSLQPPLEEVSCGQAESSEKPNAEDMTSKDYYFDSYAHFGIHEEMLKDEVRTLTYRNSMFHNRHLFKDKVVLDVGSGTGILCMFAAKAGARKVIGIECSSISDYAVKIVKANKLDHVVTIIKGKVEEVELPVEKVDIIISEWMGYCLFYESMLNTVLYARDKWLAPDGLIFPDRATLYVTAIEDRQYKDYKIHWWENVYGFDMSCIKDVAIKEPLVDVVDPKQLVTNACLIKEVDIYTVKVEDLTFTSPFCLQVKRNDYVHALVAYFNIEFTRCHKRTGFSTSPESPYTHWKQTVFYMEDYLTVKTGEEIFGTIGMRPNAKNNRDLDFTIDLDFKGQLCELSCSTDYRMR

NNMT = target: T5, NNMT (Homo sapiens, UniProt P40261); assay: In-house selectivity study, fluorescence assay: NNMT; type: biochemical; details: read-out: inhibition of enzyme activity
T5 construct: made in house
T5 sequence (P40261 1-264): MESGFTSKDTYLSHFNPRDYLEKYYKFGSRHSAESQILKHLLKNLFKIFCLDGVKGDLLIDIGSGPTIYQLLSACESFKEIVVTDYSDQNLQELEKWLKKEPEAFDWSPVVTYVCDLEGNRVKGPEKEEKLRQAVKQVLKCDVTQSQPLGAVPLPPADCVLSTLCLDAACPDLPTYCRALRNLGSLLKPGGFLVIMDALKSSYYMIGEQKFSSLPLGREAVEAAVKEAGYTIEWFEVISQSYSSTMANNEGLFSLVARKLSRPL

TbPRMT7 = TbPRMT7 (Trypanosoma brucei brucei, UniProt Q582G4); assay: biochemical; details: read-out: inhibition of enzyme activity
Chain of TbPRMT7 (Q582G4 whole entry): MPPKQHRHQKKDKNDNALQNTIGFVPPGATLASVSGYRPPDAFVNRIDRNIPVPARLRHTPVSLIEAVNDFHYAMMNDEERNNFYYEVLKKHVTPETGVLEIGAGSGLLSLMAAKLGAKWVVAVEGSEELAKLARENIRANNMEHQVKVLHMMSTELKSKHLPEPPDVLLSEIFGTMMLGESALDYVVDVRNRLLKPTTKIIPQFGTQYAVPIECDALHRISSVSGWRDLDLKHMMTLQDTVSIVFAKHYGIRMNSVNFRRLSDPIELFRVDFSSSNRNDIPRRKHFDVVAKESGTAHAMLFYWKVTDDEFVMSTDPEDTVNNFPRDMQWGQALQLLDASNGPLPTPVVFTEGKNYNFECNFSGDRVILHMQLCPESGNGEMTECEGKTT

SAHH = SAHH (Homo sapiens, UniProt P23526); assay: In-house selectivity study, fluorescence assay: coupling enzyme SAHH; type: biochemical; details: n = 2
Chain of SAHH (P23526 whole entry, species assumed): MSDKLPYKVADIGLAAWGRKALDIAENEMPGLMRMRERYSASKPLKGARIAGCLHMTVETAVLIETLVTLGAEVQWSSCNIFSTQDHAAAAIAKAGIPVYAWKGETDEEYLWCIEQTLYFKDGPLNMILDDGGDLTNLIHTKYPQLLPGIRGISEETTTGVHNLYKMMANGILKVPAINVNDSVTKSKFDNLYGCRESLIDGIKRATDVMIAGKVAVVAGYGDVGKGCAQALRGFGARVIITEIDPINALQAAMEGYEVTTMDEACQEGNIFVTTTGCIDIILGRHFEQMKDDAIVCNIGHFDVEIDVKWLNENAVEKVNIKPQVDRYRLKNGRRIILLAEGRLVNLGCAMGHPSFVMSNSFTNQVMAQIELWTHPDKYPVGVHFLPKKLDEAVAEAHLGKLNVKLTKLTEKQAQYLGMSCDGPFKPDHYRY
Protocol: Figure 6 In-house selectivity studies of GD562. The compound was tested at 100, 30, and 10 µM (n = 2). Both SAM and substrate are at their Km values.

[6] = Cytotoxicity by alamarBlue assay in HCT116 cells; details: human, GI50, HCT116 cells
[7] = system: NTMT1 knockout HCT116 cells; assay: Cytotoxicity by alamarBlue assay in NTMT1 knockout HCT116 cells; type: cell-based, human; details: wild-type and NTMT1 knockout HCT116 cells
NTMT1 [8] = target: T1, NTMT1; details: cited from earlier work
me3-RCC1 [9] = system: me3-RCC1; design: method as in PMID 33738076; details: cited from earlier work
HCT116 cells = assay: Cytotoxicity by alamarBlue assay in HCT116 cells
me3-SET [10] = system: me3-SET; design: method as in PMID 33738076; details: even at 300 µM in HCT116 cells; cited from earlier work
in vitro [11] = details: human
[12] = Parallel Artificial Membrane Permeability Assay (PAMPA)
[13] = SAHH-coupled fluorescence assay, n = 2, mean ± SD, read-out: IC50

| IC50/IC50 (DC541) (NTMT1 [1]) | Papp (in vitro [2]) | IC50 [3] | IC50 (NTMT1 [1]; [13]) | Expt. ΔGbind ± σ (NTMT1 [1]) | Structure (SMILES) | GI50 [6] | other results |
| --- | --- | --- | --- | --- | --- | --- | --- |
| 7.4 | 0.9 ± 0.3 ×10⁻⁶ cm/s |  |  |  | NCCCCC(NC(=O)C1CCCN1C(=O)Cc1cccc2ccccc12)C(=O)NCCc1ccc(-c2ccccc2)cc1 (stereo not shown) [Compound 1j] |  |  |
| 0.50 |  |  | 0.17 ± 0.008 µM | -9.24 ± 0.04 kcal/mol | NCCCCC(NC(=O)C1CCCN1C(=O)Cc1cccc2ccccc12)C(=O)Nc1cccc(Br)c1 (stereo not shown) [Compound 1a] | < 70 µM | GI50 in NTMT1 knockout versus wild-type HCT116 cells [7]: comparable GI50 value |
| 1.7 | 0.6 ± 0.1 ×10⁻⁶ cm/s | < 300 µM | 0.58 ± 0.03 µM | -8.51 ± 0.04 kcal/mol | NCCCC[C@H](NC(=O)[C@@H]1CCCN1C(=O)Cc1cccc2ccccc12)C(=O)NCc1cccc(Br)c1 [Compound 1g] | ~130 µM | GI50 (HCT116 cells): 128 ± 20 µM |
| 2.4 | 0.9 ± 0.2 ×10⁻⁶ cm/s | < 300 µM | 0.82 ± 0.07 µM | -8.30 ± 0.07 kcal/mol | NCCCC[C@H](NC(=O)[C@@H]1CCCN1C(=O)Cc1cccc2ccccc12)C(=O)NCc1ccc(Br)cc1 [Compound 1h] | ~130 µM | GI50 (HCT116 cells): 135 ± 23 µM |
| 0.53 |  |  | 0.18 ± 0.007 µM | -9.20 ± 0.03 kcal/mol | NCCCCC(NC(=O)C1CCCN1C(=O)Cc1cccc2ccccc12)C(=O)Nc1ccc(Br)cc1 (stereo not shown) [Compound 1b] | < 70 µM |  |
| 2.7 | 0.24 ± 0.06 ×10⁻⁶ cm/s | < 300 µM | 0.91 ± 0.03 µM | -8.24 ± 0.03 kcal/mol | NCCCCC(NC(=O)C1CCCN1C(=O)Cc1cccc2ccccc12)C(=O)NCc1ccccc1 (stereo not shown) [Compound 1c] | > 300 µM |  |
| 1.0 |  |  | 0.34 ± 0.03 µM | -8.82 ± 0.07 kcal/mol | NCCCCC(NC(=O)C1CCCN1C(=O)Cc1cccc2ccccc12)C(=O)Nc1ccccc1C(N)=O (stereo not shown) [DC541, reference compound] |  | IC50 (me3-RCC1 [9]; HCT116 cells, read-out: cellular IC50 on the me3-RCC1 level): ~100 µM; inhibition of me3-SET level (me3-SET [10]): did not show any inhibition |

The remaining lines, values behind:

| Structure (SMILES) | IC50/IC50 (DC541) (NTMT1 [1]) | Papp (in vitro [2]) | IC50 [3] | IC50 (NTMT1 [1]; [13]) | Expt. ΔGbind ± σ (NTMT1 [1]) | GI50 [6] | other results |
| --- | --- | --- | --- | --- | --- | --- | --- |
| NCCCCC(NC(=O)C1CCCN1C(=O)Cc1cccc2ccccc12)C(=O)NCCc1ccccc1 (stereo not shown) [Compound 1d] |  | 0.26 ± 0.06 ×10⁻⁶ cm/s | ~50 µM |  |  | > 300 µM | increase in cellular inhibition activity on me3-RCC1 compared to DC541 (me3-RCC1 [4]): over 2 fold; IC50 (me3-RCC1 [4]; Homo sapiens, HCT-116): ~50 µM; increase of inhibitory activity for the SET protein compared with DC541 (me3-SET [5]): over 6 fold; IC50 (me3-SET [5]; Homo sapiens, HCT-116): ~50 µM; inhibition at 100 µM (G9a): ≤ 50%; inhibition at 100 µM (SETD7): ≤ 50%; inhibition at 100 µM (PRMT1): ≤ 50%; inhibition at 100 µM (NNMT): ≤ 50%; inhibition at 100 µM (TbPRMT7): ≤ 50%; inhibition at 100 µM (SAHH): ≤ 50% |
| NCCCC[C@H](NC(=O)[C@@H]1CCCN1C(=O)Cc1ccc(O)cc1)C(=O)N[C@@H](CCCN=C(N)N)C(N)=O [BM30] |  |  |  |  |  |  | selectivity for NTMT1/2 among a panel of 41 methyltransferases (NTMT1 [8]): over 100 fold; IC50 (NTMT1 [8]; previously reported inhibitor): 0.89 ± 0.1 µM; IC50 (me3-RCC1 [9]; Figure 1, previously reported inhibitors, read-out: Celluar IC50): > 1000 µM |
| CN(CCc1ccccc1)C(=O)C(CCCCN)NC(=O)C1CCCN1C(=O)Cc1cccc2ccccc12 (stereo not shown) [Compound 1i] | 5.0 |  |  | 1.7 ± 0.07 µM |  |  |  |
| NCCCCC(NC(=O)C1CCCN1C(=O)Cc1cccc2ccccc12)C(=O)NCCc1cccc(-c2ccccc2)c1 (stereo not shown) [Compound 1k] | 2.0 | 1.3 ± 0.4 ×10⁻⁶ cm/s |  |  |  | < 70 µM | GI50 (HCT116 cells): 65 ± 7 µM |
| NCCCCC(NC(=O)C1CCCN1C(=O)Cc1cccc2ccccc12)C(=O)NCC1CCCCC1 (stereo not shown) [Compound 1f] | 2.8 | 0.47 ± 0.07 ×10⁻⁶ cm/s | ~100 µM | 0.94 ± 0.03 µM | -8.22 ± 0.03 kcal/mol | > 300 µM |  |
| NCCCCC(NC(=O)C1CCCN1C(=O)Cc1cccc2ccccc12)C(=O)NCCCc1ccccc1 (stereo not shown) [Compound 1e] | 1.9 |  | ~100 µM |  | -8.44 ± 0.01 kcal/mol |  | IC50 (NTMT1 [1]): 0.65 ± 0.01 µM; GI50 (in vitro [11]): > 300 µM; Papp [12]: 0.17 ± 0.08 ×10⁻⁶ cm/s |
